Reference: patent US9340510B2, “Tetrahydroisoquinoline derivatives, pharmaceutical compositions and uses thereof” (Boehringer Ingelheim International GmbH, priority 2014, dated 2016)

These compounds were tested against human ACC2 (Homo sapiens (Human), UniProt O00763) (assay: ACC2 assay: spectrophotometric 384 well assay (coupled lactate dehydrogenase/pyruvate kinase)). Conditions: hACC2 construct lacking the 128 N-terminal amino acids, 25° C., 340 nm.
Type: biochemical
Method: Spectrophotometric 384 Well Assay
Malonyl CoA formation by acetyl CoA carboxylases is stoichiometrically linked to the consumption of ATP. ACC2 activity is measured in a […] kinetic method measuring ADP generated during the ACC reaction using a coupled lactate dehydrogenase/pyruvate kinase reaction.
For biological testing, a human ACC2 construct which lacks the 128 amino acids at the N-terminus for increased solubility (nt 385-6966 in Genbank entry AJ575592) is cloned. The protein is then expressed in insect cells using a baculoviral expression system. Protein purification is performed by anion exchange.
All compounds are dissolved in dimethyl sulfoxide (DMSO) to a concentration of 10 mM.
Assay reactions are then carried out in 384-well plates, with hACC2 in an appropriate dilution and at final assay concentrations (f.c.) of 100 mM Tris (pH 7.5), 10 mM trisodium citrate, 25 mM KHCO3, 10 mM MgCl2, 0.5 mg/ml BSA, 3.75 mM reduced L-glutathione, 15 U/ml lactate dehydrogenase, 0.5 mM phosphoenolpyruvate, 15 U/ml pyruvate kinase, compounds at different concentrations at final DMSO concentrations of 1%.
The enzymatic reaction is then started by addition of a mixture of NADH, acetyl Coenzyme A (both […].) and ATP (500 uM f.c.). The decrease of the optical density (slope S) is then determined at 25° C. at a wavelength of 340 nm over 15 minutes in a spectrophotometric reader.
Each assay microtiter plate contains wells with vehicle instead of compound as controls for the non-inhibited enzyme (100% CTL; ‘HIGH’) and wells without acetyl-CoA as controls for non-specific NADH degradation (0% CTL; ‘LOW’).
The slope S is used for calculation of % CTL=(S(compound)−S(‘LOW’))/(S(‘HIGH’)−S(‘LOW’))*100. Compounds will give values between 100% CTL (no inhibition) and 0% CTL (complete inhibition).
For IC50 value determination, the sample slope in the presence of the test compound after subtraction of the low controls (S(compound)−S(‘LOW’)) are used.
An IC50 value is derived from the compound slopes at different dosages after subtraction of the low controls (S(compound)-S(‘LOW’)) by non-linear regression curve fitting (equation y=(A+((B−A)/(1+((C/x)^D))))).

Sequence of human ACC2 (O00763 129-2458): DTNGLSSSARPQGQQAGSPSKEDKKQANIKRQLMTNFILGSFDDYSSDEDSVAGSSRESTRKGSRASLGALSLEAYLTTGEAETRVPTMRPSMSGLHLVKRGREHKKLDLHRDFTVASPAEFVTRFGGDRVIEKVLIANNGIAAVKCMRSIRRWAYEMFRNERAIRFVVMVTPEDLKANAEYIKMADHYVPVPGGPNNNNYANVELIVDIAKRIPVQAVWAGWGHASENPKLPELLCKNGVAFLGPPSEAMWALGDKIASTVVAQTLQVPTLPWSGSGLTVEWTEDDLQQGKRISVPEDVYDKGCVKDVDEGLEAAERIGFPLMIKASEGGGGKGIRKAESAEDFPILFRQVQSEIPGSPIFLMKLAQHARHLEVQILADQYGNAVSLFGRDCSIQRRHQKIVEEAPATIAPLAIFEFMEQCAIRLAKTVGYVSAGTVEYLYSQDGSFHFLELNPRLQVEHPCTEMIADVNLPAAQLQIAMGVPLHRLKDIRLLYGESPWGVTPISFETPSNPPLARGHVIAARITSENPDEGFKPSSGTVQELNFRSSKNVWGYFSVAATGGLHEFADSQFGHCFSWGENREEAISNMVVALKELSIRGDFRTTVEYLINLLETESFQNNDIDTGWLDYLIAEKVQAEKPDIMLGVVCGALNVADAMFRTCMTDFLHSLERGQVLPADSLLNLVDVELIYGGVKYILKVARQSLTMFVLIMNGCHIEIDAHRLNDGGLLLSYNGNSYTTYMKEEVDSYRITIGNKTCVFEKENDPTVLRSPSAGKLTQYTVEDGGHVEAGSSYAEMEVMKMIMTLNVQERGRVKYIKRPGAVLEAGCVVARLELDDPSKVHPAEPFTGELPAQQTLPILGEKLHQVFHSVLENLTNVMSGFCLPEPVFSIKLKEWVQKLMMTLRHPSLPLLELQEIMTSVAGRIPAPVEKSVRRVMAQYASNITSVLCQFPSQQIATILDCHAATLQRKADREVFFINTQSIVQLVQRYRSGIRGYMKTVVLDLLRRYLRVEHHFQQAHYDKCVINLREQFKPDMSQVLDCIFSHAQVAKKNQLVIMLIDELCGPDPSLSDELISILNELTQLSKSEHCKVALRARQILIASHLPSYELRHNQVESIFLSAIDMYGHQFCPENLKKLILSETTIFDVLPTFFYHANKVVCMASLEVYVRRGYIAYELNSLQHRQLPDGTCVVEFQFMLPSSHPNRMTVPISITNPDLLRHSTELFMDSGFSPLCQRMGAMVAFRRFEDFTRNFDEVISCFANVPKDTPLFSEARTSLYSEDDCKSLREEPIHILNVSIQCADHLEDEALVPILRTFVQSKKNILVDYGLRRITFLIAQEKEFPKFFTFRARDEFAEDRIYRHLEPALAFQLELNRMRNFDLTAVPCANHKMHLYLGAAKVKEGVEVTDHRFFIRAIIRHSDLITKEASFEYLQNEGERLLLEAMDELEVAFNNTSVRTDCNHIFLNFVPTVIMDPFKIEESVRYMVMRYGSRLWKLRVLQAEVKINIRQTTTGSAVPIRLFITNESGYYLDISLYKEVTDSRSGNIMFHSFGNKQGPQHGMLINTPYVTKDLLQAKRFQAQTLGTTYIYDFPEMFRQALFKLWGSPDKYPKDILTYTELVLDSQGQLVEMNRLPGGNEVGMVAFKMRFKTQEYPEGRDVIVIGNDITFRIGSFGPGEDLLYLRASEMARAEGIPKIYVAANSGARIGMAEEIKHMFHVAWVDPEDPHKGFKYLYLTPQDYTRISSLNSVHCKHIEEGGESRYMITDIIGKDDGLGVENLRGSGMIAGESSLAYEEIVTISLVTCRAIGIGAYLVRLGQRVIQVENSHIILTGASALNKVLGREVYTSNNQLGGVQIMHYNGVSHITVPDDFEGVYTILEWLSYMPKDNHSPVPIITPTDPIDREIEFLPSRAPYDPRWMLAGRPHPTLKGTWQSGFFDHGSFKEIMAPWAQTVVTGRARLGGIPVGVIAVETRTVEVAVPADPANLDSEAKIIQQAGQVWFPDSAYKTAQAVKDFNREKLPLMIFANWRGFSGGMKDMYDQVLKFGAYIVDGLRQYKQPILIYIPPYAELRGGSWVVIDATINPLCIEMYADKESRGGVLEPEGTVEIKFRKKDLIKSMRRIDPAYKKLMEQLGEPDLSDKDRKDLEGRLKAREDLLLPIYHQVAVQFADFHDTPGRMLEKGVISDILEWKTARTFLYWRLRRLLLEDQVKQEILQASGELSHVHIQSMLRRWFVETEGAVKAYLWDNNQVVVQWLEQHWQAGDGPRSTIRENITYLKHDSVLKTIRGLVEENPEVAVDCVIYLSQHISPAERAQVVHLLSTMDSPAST

Structure (SMILES) | IC50
C[C@H](NC(=O)Cc1cncnc1)c1ccc(CN2CCc3cc(OCC4CC4)ccc3C2)cc1 [Example 2.022] | 82 nM
C[C@H](NC(=O)CO)c1ccc(CN2CCc3cc(OCC4CC4)ccc3C2)cc1 [Example 2.023] | 82 nM
C[C@H](NC(=O)C1(O)CC1)c1ccc(CN2CCc3cc(OCC4CC4)ccc3C2)cc1 [Example 2.024] | 150 nM
C[C@H](NC(=O)CO)c1ccc(CN2CCc3cc(OC[C@@H]4CC4(F)F)ccc3C2)cc1 [Example 2.025] | 89 nM
C[C@H](NC(=O)Cc1cncnc1)c1ccc(CN2CCc3cc(OC[C@@H]4CC4(F)F)ccc3C2)cc1 [Example 2.026] | 81 nM
CC(O)C(=O)N[C@@H](C)c1ccc(CN2CCc3cc(OC[C@@H]4CC4(F)F)ccc3C2)cc1 (stereo partly drawn) [Example 2.027] | 130 nM
C[C@H](NC(=O)C1(O)CC1)c1ccc(CN2CCc3cc(OC[C@@H]4CC4(F)F)ccc3C2)cc1 [Example 2.028] | 217 nM
C[C@H](NC(=O)C1CCC(=O)N1)c1ccc(CN2CCc3cc(OC[C@@H]4CC4(F)F)ccc3C2)cc1 (stereo partly drawn) [Example 2.029] | 329 nM
C[C@H](NC(=O)CC(=O)N(C)C)c1ccc(CN2CCc3cc(OC[C@@H]4CC4(F)F)ccc3C2)cc1 [Example 2.031] | 447 nM
CC(=O)Nc1nc(C)c(C(=O)N[C@@H](C)c2ccc(CN3CCc4cc(OCC5CC5)ccc4C3)cc2)s1 [Example 2.032] | 34 nM
CCC(=O)Nc1nc(C)c(C(=O)N[C@@H](C)c2ccc(CN3CCc4cc(OCC5CC5)ccc4C3)cc2)s1 [Example 2.033] | 39 nM
C[C@H](NC(=O)CO)c1ccc(CN2Cc3ccc(OCC4CC4(F)F)cc3C(F)C2)cc1 (stereo partly drawn) [Example 2.034] | 55 nM
CC(=O)Nc1nc(C)c(C(=O)N[C@@H](C)c2ccc(CN3Cc4ccc(OCC5CC5(F)F)cc4C(O)C3)cc2)s1 (stereo partly drawn) [Example 2.035] | 259 nM
C[C@H](NC(=O)C1CC(F)C1)c1ccc(CN2Cc3ccc(OCC4CC4(F)F)cc3C(O)C2)cc1 (stereo partly drawn) [Example 2.036] | 408 nM
C[C@H](NC(=O)CC#N)c1ccc(CN2Cc3ccc(OCC4CC4(F)F)cc3C(O)C2)cc1 (stereo partly drawn) [Example 2.037] | 806 nM
C[C@H](NC(=O)c1cncnc1)c1ccc(CN2CC(=O)c3cc(OCC4CC4(F)F)ccc3C2)cc1 (stereo partly drawn) [Example 2.038] | 819 nM
C[C@H](NC(=O)CO)c1ccc(CN2CC(=O)c3cc(OCC4CC4(F)F)ccc3C2)cc1 (stereo partly drawn) [Example 2.039] | 565 nM
C[C@H](NC(=O)CO)c1ccc(CN2CC(=O)c3cc(OCC4CC4)ccc3C2)cc1 [Example 2.041] | 600 nM
CC(O)C(=O)N[C@@H](C)c1ccc(CN2CC(=O)c3cc(OCC4CC4)ccc3C2)cc1 (stereo partly drawn) [Example 2.042] | 624 nM
C[C@H](NC(=O)CC#N)c1ccc(CN2CC(=O)c3cc(OCC4CC4)ccc3C2)cc1 [Example 2.043] | 428 nM
C[C@H](NC(=O)Cc1cncnc1)c1ccc(CN2CC(=O)c3cc(OCC4CC4)ccc3C2)cc1 [Example 2.044] | 446 nM
C[C@H](NC(=O)CC#N)c1ccc(CN2CCc3cc(OCC4CC4(F)F)ccc3C2)cc1 (stereo partly drawn) [Example 3.001, 2-Cyano-N—((S)-1-{4-[6-(2,2-difluoro-cyclopropylmethoxy)-3,4-dihydro-1H-isoquinolin-2-ylmethyl]-phenyl}-ethyl)-acetamide] | 35 nM

The remaining lines, values ahead:

IC50 | Structure (SMILES)
29 nM | C[C@H](NC(=O)C(C)(F)F)c1ccc(CN2CCc3cc(OCC4CC4(F)F)ccc3C2)cc1 (stereo partly drawn) [Example 3.002]
91 nM | CC(C#N)C(=O)N[C@@H](C)c1ccc(CN2CCc3cc(OCC4CC4(F)F)ccc3C2)cc1 (stereo partly drawn) [Example 3.003]
95 nM | C[C@H](NC(=O)Cc1cncnc1)c1ccc(CN2Cc3ccc(OCC4CC4(F)F)cc3C(F)C2)cc1 (stereo partly drawn) [Example 3.03]
46 nM | C[C@H](NC(=O)c1cnn(C)c1)c1ccc(CN2CCc3cc(OCC4CC4(F)F)ccc3C2)cc1 (stereo partly drawn) [Example 3.004]
59 nM | C[C@H](NC(=O)C1(C(F)(F)F)CC1)c1ccc(CN2CCc3cc(OCC4CC4(F)F)ccc3C2)cc1 (stereo partly drawn) [Example 3.005]
38 nM | C[C@H](NC(=O)C1CCC1)c1ccc(CN2CCc3cc(OCC4CC4(F)F)ccc3C2)cc1 (stereo partly drawn) [Example 3.006]
50 nM | C[C@H](NC(=O)C1CC(F)C1)c1ccc(CN2CCc3cc(OCC4CC4(F)F)ccc3C2)cc1 (stereo partly drawn) [Example 3.007]
68 nM | C[C@H](NC(=O)c1ccns1)c1ccc(CN2CCc3cc(OCC4CC4(F)F)ccc3C2)cc1 (stereo partly drawn) [Example 3.008]
59 nM | C[C@H](NC(=O)c1cnco1)c1ccc(CN2CCc3cc(OCC4CC4(F)F)ccc3C2)cc1 (stereo partly drawn) [Example 3.009]
25 nM | C[C@H](NC(=O)c1cn[nH]c1)c1ccc(CN2CCc3cc(OCC4CC4(F)F)ccc3C2)cc1 (stereo partly drawn) [Example 3.010]
52 nM | C[C@H](NC(=O)c1ccon1)c1ccc(CN2CCc3cc(OCC4CC4(F)F)ccc3C2)cc1 (stereo partly drawn) [Example 3.011]
122 nM | Cc1[nH]ncc1C(=O)N[C@@H](C)c1ccc(CN2CCc3cc(OCC4CC4(F)F)ccc3C2)cc1 (stereo partly drawn) [Example 3.012]
40 nM | C[C@H](NC(=O)C1(C#N)CC1)c1ccc(CN2CCc3cc(OCC4CC4(F)F)ccc3C2)cc1 (stereo partly drawn) [Example 3.013]
103 nM | C[C@H](NC(=O)c1ccno1)c1ccc(CN2CCc3cc(OCC4CC4(F)F)ccc3C2)cc1 (stereo partly drawn) [Example 3.014]
24 nM | C[C@H](NC(=O)C1(C)CC1)c1ccc(CN2CCc3cc(OCC4CC4(F)F)ccc3C2)cc1 (stereo partly drawn) [Example 3.015]
162 nM | C[C@H](NC(=O)c1cnn(C)c1Cl)c1ccc(CN2CCc3cc(OCC4CC4(F)F)ccc3C2)cc1 (stereo partly drawn) [Example 3.016]
37 nM | CCC(=O)Nc1nc(C)c(C(=O)N[C@@H](C)c2ccc(CN3CCc4cc(OCC5CC5(F)F)ccc4C3)cc2)s1 (stereo partly drawn) [Example 3.017]
208 nM | C[C@H](NC(=O)c1cnn(C)c1N)c1ccc(CN2CCc3cc(OCC4CC4(F)F)ccc3C2)cc1 (stereo partly drawn) [Example 3.018]
28 nM | C[C@H](NC(=O)c1cncs1)c1ccc(CN2CCc3cc(OCC4CC4(F)F)ccc3C2)cc1 (stereo partly drawn) [Example 3.019]

IC50 | Structure (SMILES)
33 nM | Cc1nocc1C(=O)N[C@@H](C)c1ccc(CN2CCc3cc(OCC4CC4(F)F)ccc3C2)cc1 (stereo partly drawn) [Example 3.020]
198 nM | C[C@H](NC(=O)C1CC(F)(F)C1)c1ccc(CN2CCc3cc(OCC4CC4(F)F)ccc3C2)cc1 (stereo partly drawn) [Example 3.021]
28 nM | C[C@H](NC(=O)[C@H]1C[C@H](F)C1)c1ccc(CN2CCc3cc(OCC4CC4(F)F)ccc3C2)cc1 (stereo partly drawn) [Example 3.022]
45 nM | C[C@H](NC(=O)[C@H]1C[C@H](F)C1)c1ccc(CN2Cc3ccc(OCC4CC4)cc3C(F)C2)cc1 (stereo partly drawn) [Example 3.023]
22 nM | CCC(=O)N[C@@H](C)c1ccc(CN2Cc3ccc(OCC4CC4)cc3C(F)C2)cc1 (stereo partly drawn) [Example 3.024]
26 nM | CCC(=O)Nc1nc(C)c(C(=O)N[C@@H](C)c2ccc(CN3Cc4ccc(OCC5CC5)cc4C(F)C3)cc2)s1 (stereo partly drawn) [Example 3.025]
49 nM | C[C@H](NC(=O)CC#N)c1ccc(CN2Cc3ccc(OCC4CC4)cc3C(F)C2)cc1 (stereo partly drawn) [Example 3.026]
38 nM | CCC(=O)N[C@@H](C)c1ccc(CN2Cc3ccc(OCC4CC4(F)F)cc3C(F)C2)cc1 (stereo partly drawn) [Example 3.027]
46 nM | C[C@H](NC(=O)C1(C#N)CC1)c1ccc(CN2Cc3ccc(OCC4CC4(F)F)cc3C(F)C2)cc1 (stereo partly drawn) [Example 3.028]
45 nM | C[C@H](NC(=O)CC#N)c1ccc(CN2Cc3ccc(OCC4CC4(F)F)cc3C(F)C2)cc1 (stereo partly drawn) [Example 3.029]
77 nM | C[C@H](NC(=O)[C@H]1C[C@H](F)C1)c1ccc(CN2Cc3ccc(OCC4CC4(F)F)cc3C(F)C2)cc1 (stereo partly drawn) [Example 3.031]
58 nM | CC(=O)Nc1nc(C)c(C(=O)N[C@@H](C)c2ccc(CN3Cc4ccc(OCC5CC5(F)F)cc4C(F)C3)cc2)s1 (stereo partly drawn) [Example 3.032]
358 nM | C[C@H](NC(=O)c1ncc[nH]1)c1ccc(CN2Cc3ccc(OCC4CC4)cc3C(F)C2)cc1 (stereo partly drawn) [Example 3.033]
115 nM | C[C@H](NC(=O)CC(N)=O)c1ccc(CN2Cc3ccc(OCC4CC4)cc3C(F)C2)cc1 (stereo partly drawn) [Example 3.034]
143 nM | C[C@H](NC(=O)C1CCC(=O)N1)c1ccc(CN2Cc3ccc(OCC4CC4)cc3C(F)C2)cc1 (stereo partly drawn) [Example 3.035]
518 nM | CC(=O)Nc1nc(C)c(C(=O)N[C@@H](C)c2ccc(CN3Cc4ccc(OCC5CC5)cc4C(F)C3)cc2)o1 (stereo partly drawn) [Example 3.036]
60 nM | C[C@H](NC(=O)Cc1cnccn1)c1ccc(CN2Cc3ccc(OCC4CC4)cc3C(F)C2)cc1 (stereo partly drawn) [Example 3.037]
198 nM | C[C@H](NC(=O)C1CC1)c1ccc(CN2Cc3ccc(OCC4CC4)cc3C(O)C2)cc1 (stereo partly drawn) [Example 3.038]
136 nM | CCC(=O)N[C@@H](C)c1ccc(CN2Cc3ccc(OCC4CC4)cc3C(O)C2)cc1 (stereo partly drawn) [Example 3.039]
